Each compound was assayed against PAR4 (Homo sapiens (Human), UniProt Q96RI0) (assay: PAR4 FLIPR assay (antagonism of agonist-peptide-induced calcium mobilization)). Conditions: H-Ala-Phe(4-F)-Pro-Gly-Trp-Leu-Val-Lys-Asn-Gly-NH2-induced intracellular calcium mobilization, PAR4-expressing HEK293 cells; read-out: PAR4 FLTPR assay (IC50).
Type: cell-based
Source text: The Fluorometric Imaging Plate Reader (FLIPR) assay is an exemplary in vitro assay for measuring the activity of the PAR4 antagonists of the present invention. In this assay, intracellular calcium mobilization is induced in PAR4 expressing cells by a PAR4 agonist and calcium mobilization is monitored.
HEK293 cells stably expressing PAR4 were generated by a standard method of transfection of human PAR4 (F2R23) cDNA expression vector and selected based on PAR4 protein expression or mRNA expression. […] These cells also express endogenous PAR1 and can elicit calcium signal upon stimulation with PAR1 agonist peptide. Therefore, the same cells were also used to determine selectivity against PAR1 and agonist activity for both receptors. Cells from HEK293 PAR4 Clone 1.2A (BMS Arctic ID 383940) were propagated and used for calcium mobilization studies.
FLIPR-based calcium mobilization assay in HEK293 cells was used to measure PAR4 antagonism agonism, and selectivity against PAR1. The activity of the PAR4 antagonists of the present invention were tested in PAR4 expressing cells by monitoring H-Ala-Phe(4-F)-[…]NH2-induced intracellular calcium mobilization. Counter screens for agonist activity and PAR1 antagonist activity were also performed. Briefly, PAR/PAR4-expressing HEK293 cells were grown in DMEM (Life Technology, Grand Island, N.Y.) containing 10% heat-inactivated FBS, 1% Penicillin-Streptomycin, 10 μg/mL blasticidin, and 100 μg/mL Zeocin at 37° C. with 5% CO2. Cells were plated overnight prior to the experiment in a black 384-well Purecoat Amine clear bottom plate (Becton Dickinson Biosciences, San Jose, Calif.) at 10,000 cells/well in 30 μL growth medium and incubated in a humidified chamber at 37° C. with 5% CO2 overnight. Prior to compound addition, the cell medium was replaced with 40 μL of 1× calcium and magnesium-containing Hank's Balanced Saline Solution (HBSS) (with 20 mM HEPES) and 1:1000 diluted fluorescent calcium indicator (Codex Biosolutions, Gaithersburg, Md.). After a 30 minute incubation period at 37° C. and a further 30 minute incubation and equilibration period at room temperature, 20 μL test compound (diluted in 1×HBSS buffer) was added at various concentrations at 0.17% dimethyl sulfoxide (DMSO) final concentration. Changes in fluorescence intensity were measured using a Functional Drug Screening System (FDSS, Hamamatsu, Japan) to determine agonist activities. The cells were then incubated for 30 minutes at room temperature followed by addition of 20 μL of agonist peptide for antagonist activity measurement. […] Compound potency was derived from 11-point concentration-response curves.

Sequence of PAR4 (Q96RI0 18-385): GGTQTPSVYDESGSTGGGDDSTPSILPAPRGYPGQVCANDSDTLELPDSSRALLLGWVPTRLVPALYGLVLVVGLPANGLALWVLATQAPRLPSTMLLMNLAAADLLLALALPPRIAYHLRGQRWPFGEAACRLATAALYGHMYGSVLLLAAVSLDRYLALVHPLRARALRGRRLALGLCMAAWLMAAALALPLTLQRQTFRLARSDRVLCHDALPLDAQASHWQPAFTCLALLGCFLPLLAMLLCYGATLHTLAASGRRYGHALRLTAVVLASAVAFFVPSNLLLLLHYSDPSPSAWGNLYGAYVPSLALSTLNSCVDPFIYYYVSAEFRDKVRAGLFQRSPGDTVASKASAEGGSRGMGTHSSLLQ

SMILES	IC50 [nM]
COc1cnc2c(-c3nc4cc(F)c(O[C@H]5CC(F)(F)CC[C@H]5OC(=O)Nc5ccc(CO)nc5)cc4s3)cc(C)cc2n1 [Example 6]	0.76
COc1cnc2c(-c3nc4cc(F)c(O[C@H]5CC(F)(F)CC[C@H]5OC(=O)Nc5ccnc(OCCC(C)(C)O)c5)cc4s3)cc(C)cc2n1 [Example 8]	1.2
COc1cnc2c(-c3nc4cc(F)c(O[C@H]5CC(F)(F)CC[C@H]5OC(=O)Nc5ccnnc5)cc4s3)cc(C)cc2n1 [Example 9]	12
COc1cnc2c(-c3nc4cc(F)c(O[C@H]5CC(F)(F)CC[C@H]5OC(=O)Nc5cnc(CO)nc5)cc4s3)cc(C)cc2n1 [Example 10]	23
COc1cnc2c(-c3nc4cc(F)c(O[C@@H]5CC(F)(F)CC[C@@H]5OC(=O)Nc5cnc(C)nc5)cc4s3)cc(C)cc2n1 [Example 13]	110
COc1cnc2c(-c3nc4cc(F)c(O[C@H]5CC(F)(F)CC[C@H]5OC(=O)Nc5cnc(OCCO)nc5)cc4s3)cc(C)cc2c1 [Example 15, (1R, 2S)-4,4-difluoro-2-((5-fluoro-2-(3-methoxy-6-methylquinolin-8-yl)benzo[d]thiazol-6-yl)oxy)cyclohexyl (2-(2-hydroxyethoxy)pyrimidin-5-yl)carbamate]	0.77
COc1cnc2c(-c3nc4cc(F)c(O[C@H]5CC(F)(F)CC[C@H]5OC(=O)Nc5cnc(OCCO)nc5)cc4s3)cc(Cl)cc2c1 [Example 16, (1R,2S)-2-((2-(6-chloro-3-methoxyquinolin-8-vi)-5-fluorobenzo[d]thiazol-6-yl)oxy)-4,4-difluorocyclohexyl (2-(2-hydroxyethoxy)pyrimidin-5-yl)carbamate]	1.3
COc1cnc2c(-c3nc4cc(F)c(O[C@H]5CC(F)(F)CC[C@H]5OC(=O)Nc5cnc(C)nc5)cc4s3)cc(Cl)cc2c1 [Example 17, (1R,2S)-2-((2-(6-chloro-3-methoxyquinolin-8-yl)-5-fluorobenzo[d]thiazol-6-yl)oxy)-4,4-difluorocyclohexyl (2-methylpyrimidin-5-yl)carbamate]	4.1
CCOc1cnc2c(-c3nc4cc(F)c(O[C@H]5CC(F)(F)CC[C@H]5OC(=O)Nc5cnc(C)nc5)cc4s3)cc(C)cc2n1 [Example 18, (1R,2S)-2-((2-(2-ethoxy-7-methylquinoxalin-5-yl)-5-fluorobenzo[d]thiazol-6-yl)oxy)-4,4-difluorocyclohexyl (2-methylpyrimidin-5-yl)carbamate]	3.9
COc1cnc2c(-c3nc4cc(F)c(O[C@H]5CC(F)(F)CC[C@H]5OC(=O)Nc5cnc(OCCOP(=O)(O)O)nc5)cc4s3)cc(C)cc2n1 [Example 19, (1R,2S)-4,4-difluoro-2-((5-fluoro-2-(2-methoxy-7-methylquinoxalin-5-yl)benzo[d]thiazol-6-yl)oxy)cyclohexyl (2-(2-(phosphonooxy)ethoxy)pyrimidin-5-yl)carbamate]	1
COc1ccc(NC(=O)O[C@H]2CCC[C@H]2Oc2cc3sc(-c4cc(C)cc5nc(OC)cnc45)nc3cc2F)cn1 [Example 23]	30
COc1ccc(NC(=O)O[C@@H]2CCC[C@@H]2Oc2cc3sc(-c4cc(C)cc5nc(OC)cnc45)nc3cc2F)nc1 [Example 24]	7.8
COc1ccc(NC(=O)O[C@@H]2CCC[C@@H]2Oc2cc3sc(-c4cc(C)cc5nc(OC)cnc45)nc3cc2F)cc1 [Example 25]	1.3
COc1cnc2c(-c3nc4cc(F)c(O[C@H]5CCC[C@H]5OC(=O)Nc5ncc(C)cn5)cc4s3)cc(C)cc2n1 [Example 26]	83
COc1cnc2c(-c3nc4cc(F)c(O[C@@H]5CCC[C@@H]5OC(=O)Nc5cnc(C)nc5)cc4s3)cc(C)cc2n1 [Example 27]	58
COc1cnc2c(-c3nc4cc(F)c(O[C@H]5CCC[C@H]5OC(=O)NC(C)C)cc4s3)cc(C)cc2n1 [Example 29]	12
COc1cnc2c(-c3nc4cc(F)c(O[C@H]5CCC[C@H]5OC(=O)Nc5ccnc(C)c5)cc4s3)cc(C)cc2n1 [Example 30]	2.6

SMILES	IC50 [nM]
COc1cnc2c(-c3nc4cc(F)c(O[C@H]5CCC[C@H]5OC(=O)Nc5ccc(CO)nc5)cc4s3)cc(C)cc2n1 [Example 31]	1.1
COc1cnc2c(-c3nc4cc(F)c(O[C@H]5CCC[C@H]5OC(=O)Nc5ccc(C)nc5)cc4s3)cc(C)cc2n1 [Example 32]	2.6
COc1cnc2c(-c3nc4cc(F)c(O[C@H]5CCC[C@H]5OC(=O)Nc5cncc(C#N)c5)cc4s3)cc(C)cc2n1 [Example 34]	1.6
COc1cnc2c(-c3nc4cc(F)c(O[C@H]5CCC[C@H]5OC(=O)Nc5ccc(C#N)nc5)cc4s3)cc(C)cc2n1 [Example 36]	2.4
COc1cnc2c(-c3nc4cc(F)c(O[C@H]5CCC[C@H]5OC(=O)Nc5cnc(C)nc5)cc4s3)cc(C)cc2n1 [Example 37]	4
COc1cnc2c(-c3nc4cc(F)c(O[C@H]5CCC[C@H]5OC(N)=O)cc4s3)cc(C)cc2n1 [Example 39]	400
COC(=O)c1ccc(NC(=O)O[C@@H]2CCC[C@@H]2Oc2cc3sc(-c4cc(C)cc5nc(OC)cnc45)nc3cc2F)cn1 [Example 47, methyl 5-(((((1R,2S)-2-((5-fluoro-2-(2-methoxy-7-methylquinoxalin-5-yl)benzo[d]thiazol-6-yl)oxy)cyclopentyl)oxy)carbonyl)amino)picolinate]	4.2
CNC(=O)c1ccc(NC(=O)O[C@@H]2CCC[C@@H]2Oc2cc3sc(-c4cc(C)cc5nc(OC)cnc45)nc3cc2F)cn1 [Example 48, (1R,2S)-2-((5-fluoro-2-(2-methoxy-7-methylquinoxalin-5-yl)benzo[d]thiazol-6-yl)oxy)cyclopentyl (6-(methylcarbamoyl)pyridin-3-yl)carbamate]	2.4
COc1cnc2c(-c3nc4cc(F)c(O[C@H]5CCC[C@H]5OC(=O)Nc5ccc(C(N)=O)nc5)cc4s3)cc(C)cc2n1 [Example 49, (1R,2S)-2-((5-fluoro-2-(2-methoxy-7-methylquinoxalin-5-yl)benzo[d]thiazol-6-yl)oxy)cyclopentyl (6-carbamoylpyridin-3-yl)carbamate]	3.6
COc1cnc2c(-c3nc4cc(F)c(O[C@H]5CCC[C@H]5OC(=O)Nc5ccc(C(=O)N(C)C)nc5)cc4s3)cc(C)cc2n1 [Example 50, (1R,2S)-2-((5-fluoro-2-(2-methoxy-7-methylquinoxalin-5-yl)benzo[d]thiazol-6-yl)oxy)cyclopentyl (6-(dimethylcarbamoyl)pyridin-3-yl)carbamate]	3.4
COC(=O)c1ncc(NC(=O)O[C@@H]2CCC[C@@H]2Oc2cc3sc(-c4cc(C)cc5nc(OC)cnc45)nc3cc2F)cn1 [Example 51, methyl 5-(((((1R,2S)-2-((5-fluoro-2-(2-methoxy-7-methylquinoxalin-5-yl)benzo[d]thiazol-6-yl)oxy)cyclopentyl)oxy)carbonyl)amino)pyrimidine-2-carboxylate]	6.8
COc1cnc2c(-c3nc4cc(F)c(O[C@H]5CCC[C@H]5OC(=O)Nc5cnc(C(N)=O)nc5)cc4s3)cc(C)cc2n1 [Example 52, (1R,2S)-2-((5-fluoro-2-(2-methoxy-7-methylquinoxalin-5-yl)benzo[d]thiazol-6-yl)oxy)cyclopentyl (2-carbamoylpyrimidin-5-yl)carbamate]	2.5
COc1cnc2c(-c3nc4cc(F)c(O[C@H]5CC[C@H]5O)cc4s3)cc(C)cc2n1 [Example 60, cis-2-((5-fluoro-2-(2-methoxy-7-methylquinoxalin-5-yl)benzo[d]thiazol-6-yl)oxy)cyclobutanol (Homochiral)]	9.8
COc1cnc2c(-c3nc4cc(F)c(O[C@H]5CC[C@H]5OC(=O)Nc5cnc(OC[C@@H](C)O)nc5)cc4s3)cc(C)cc2n1 [Example 63]	7.4
COc1cnc2c(-c3nc4cc(F)c(O[C@H]5CC[C@H]5OC(=O)Nc5cnc(OCCO)nc5)cc4s3)cc(C)cc2n1 [Example 64]	1.9
COc1cnc2c(-c3nc4cc(F)c(O[C@H]5CC[C@H]5OC(=O)Nc5cnc(CCO)nc5)cc4s3)cc(C)cc2n1 [Example 65]	3.7

Same assay, conditions: H-Ala-Phe(4-F)-[…]NH2-induced intracellular calcium mobilization, PAR4-expressing HEK293 cells; read-out: PAR4 FLTPR assay (IC50)

SMILES	IC50 [nM]
COc1ccc(NC(=O)O[C@@H]2CCC[C@@H]2Oc2cc3sc(-c4cc(C)cc5nc(OC)cnc45)nc3cc2F)cn1 [Example 22, (1R,2S)-2-((5-fluoro-2-(2-methoxy-7-methylquinoxalin-5-yl)benzo[d]thiazol-6-yl)oxy)cyclopentyl (6-methoxy pyridin-3-yl)carbamate]	2.4

— US10730868B2, “Bicyclic heteroaryl substituted compounds” (BRISTOL-MYERS SQUIBB COMPANY, priority 2016, dated 2020)
